Data reported in patent US6482799B1, “Self-preserving multipurpose ophthalmic solutions incorporating a polypeptide antimicrobial” (The Regents of the University of California, priority 1999, dated 2002).

Key:
S. aureus ATCC 6538 [1] = assay: Long-term (8 month) stability in commercial container (Rite-Aid) by S. aureus bioassay; format: cell-based, Staphylococcus aureus; settings: 50 μg/ml; for log kill: 4 hours exposure; for stability: 8 months
Description: Long term stability of indolicidin was evaluated in a commercial container (Rite-Aid). The L-indolicidin concentration was 50 μg/ml formulated in a 10 mM sodium phosphate buffer, pH 7.4, with and without 0.85% sodium chloride. The test organism was S. aureus ATCC 6538. Sampling time was 0, 1, 2, 3, 4 and 8 months. The exposure time of the test organism was 0 and 4 hours.

[2] = test system: P. aeruginosa (ATCC 27853); assay: Protocol 3 time-dependent antimicrobial activity at one dose level; format: cell-based, Pseudomonas aeruginosa
S. aureus ATCC 6538 [3] = assay: as above; format: cell-based, Staphylococcus aureus; settings: 50 μg/ml, 10 mM sodium phosphate buffer pH 7.4, 1, 2, 5 and 15 minutes, room temperature
Description: The objective of this protocol is to establish a procedure for determining the antimicrobial activity of indolicidin (e.g., L-IND) at 50 μg/ml over an extended exposure time up to 24 hours at room temperature. It is believed that this procedure more closely mimics the recommended use of lens-care products.
Exposure of the test organism to indolicidin occurs in a buffered solution for up to 24 hours with sampling for viability at different time intervals. Polypropylene 96-well microtiter plates and microcentrifuge tubes are used for exposure and dilution of indolicidin, respectively.
The following materials are used: sterile glass tubes containing 5 ml of Mueller-Hinton Broth (MHB), Mueller-Hinton agar plates, sterile 96-well polypropylene microtiter plates, and sterile polypropylene microcentrifuge tubes.
One or more of the following microorganisms are used in assays using this protocol or modification of this protocol: Pseudomonas aeruginosa (ATCC 9027), Pseudomonas aeruginosa (ATCC 27853), and S. aureus (ATCC 6538).
Five 5 ml of MHB tubes are innoculated with the tester strain(s) from MHA plates and grown overnight at 37° C. on a shaker (180 rpm). […]
Survival is determined by counting the colonies appearing on plates after overnight incubation at 37° C. The results are expressed as CFU/ml and survival is expressed as the percent of the bacteria that survived the treatment. […]

[4] = test system: Staphylococcus aureus 502A; assay: Dose response of antimicrobial activity in 10 mM sodium phosphate buffer; format: cell-based; settings: 10 μg/mL indolicidin, 2 hours, 10 mM sodium phosphate buffer pH 7.4, 37° C., 2×10^6 CFU
Description: The time course and dose-dependence of the antimicrobial activity of an antimicrobial peptide can be determined by incubating a microorganism with the antimicrobial peptide and determining the viability after various times of incubation or after treatment with various concentrations of the antimicrobial peptide.
Exemplary assays using indolicidin and indolicidin analogs were performed in 10 mM sodium phosphate buffer, pH 7.4, at 37° C., as described by Selsted et al. (1985) Infect. Immun. 45:150-154, which is incorporated herein by reference.
The dose response of a gram negative bacterial strain, Escherichia coli ML35, and a gram positive bacterial strain, Staphylococcus aureus 502A, to indolicidin was determined by incubating 2×10^6 colony forming units (CFU) of log phase bacteria with 0-25 μg/mL of indolicidin for two hours. Following incubation, the cultures were serially diluted and plated on nutrient agar. Viability of both gram negative and gram positive bacteria was reduced by at least four orders of magnitude in incubations containing 10 μg/mL of indolicidin. E. coli was more susceptible than S. aureus, as >95% of the input cells were killed after 2 hr incubation with 2.5 μg/mL indolicidin. The indolicidin diluent, 0.01% acetic acid, had no effect on either bacterial strain.

CC[C@H](C)[C@H](N)C(=O)N[C@@H](CC(C)C)C(=O)N1CCC[C@H]1C(=O)N[C@@H](Cc1c[nH]c2ccccc12)C(=O)N[C@@H](CCCCN)C(=O)N[C@@H](Cc1c[nH]c2ccccc12)C(=O)N1CCC[C@H]1C(=O)N[C@@H](Cc1c[nH]c2ccccc12)C(=O)N[C@@H](Cc1c[nH]c2ccccc12)C(=O)N1CCC[C@H]1C(=O)N[C@@H](Cc1c[nH]c2ccccc12)C(=O)N[C@@H](CCCNC(=N)N)C(=O)N[C@@H](CCCNC(=N)N)C(N)=O [L-indolicidin, H2N-ILPWKWPWWPWRR-CONH2]
log kill (S. aureus ATCC 6538 [1]; 10 mM SP pH 7.4, over 8 months): ~4 log | log kill (S. aureus ATCC 6538 [1]; 10 mM SP with 0.85% NaCl, over 8 months): ~1 log | stability (S. aureus ATCC 6538 [1]; 10 mM SP with NaCl): 100% | stability (S. aureus ATCC 6538 [1]; 10 mM SP): 100% | log cell reduction ([2]; 50 μg/ml, 10 mM sodium phosphate buffer, as early as after 1 minute exposure, initial 2.0×10^6 CFU/ml): ~6 log | survival ([2]; 50 μg/ml, 10 mM sodium phosphate buffer, exposure time 0 hr): 2.4 × 10^6 CFU/ml | survival ([2]; 50 μg/ml, 10 mM sodium phosphate buffer, exposure time 1 hr): 1.6 × 10^6 CFU/ml | survival ([2]; 50 μg/ml, 10 mM sodium phosphate buffer, exposure time 2 hr): 1.1 × 10^5 CFU/ml | survival ([2]; 50 μg/ml, 10 mM sodium phosphate buffer, exposure time 4 hr): 0 CFU/ml | survival ([2]; 50 μg/ml, 10 mM sodium phosphate buffer, exposure time 6 hr): 0 CFU/ml | survival ([2]; 50 μg/ml, 10 mM sodium phosphate buffer, exposure time 12 hr): 0 CFU/ml | survival ([2]; 50 μg/ml, 10 mM sodium phosphate buffer, up to 15 minutes): 100% | killing ([2]; 50 μg/ml, 100 mM sodium phosphate buffer, exposures of between 15 and 60 min): virtually complete killing | survival ([2]; 50 μ/ml, 10 mM sodium phosphate buffer, after 4 hours exposure): no detectable survival | survival (S. aureus ATCC 6538 [3]): no survival | Viability reduction [4]: at least four
